The text below walks through data of patent publication US20240208992A1, “MACROCYCLES AS CFTR MODULATORS” (Idorsia Pharmaceuticals Ltd, priority 2021, published 2024).

The structures appear in SMILES notation.

The test concerns the target human F508del-CFTR (Homo sapiens, UniProt P13569, DEL508-508). Kind of test: F508del-CFTR cell surface expression (corrector activity), DiscoveRx ß-galactosidase complementation chemiluminescence assay in recombinant U2OS cell line.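 For all read-outs here: U2OS cells co-expressing ProLink-tagged F508del-CFTR and a membrane-anchored enzyme acceptor, where more surface CFTR restores β-galactosidase activity measured by chemiluminescence.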 The conditions noted are these: U2OS cell line, 16h compound incubation; for EC50: EC50, F508del-CFTR cell surface expression, geomean values; for Emax: U2OS, in relation to the Emax of the corrector lumacaftor (=100%), arithmetic mean values.

human F508del-CFTR, sequence (P13569 with tags, fused parts or gaps DEL508-508): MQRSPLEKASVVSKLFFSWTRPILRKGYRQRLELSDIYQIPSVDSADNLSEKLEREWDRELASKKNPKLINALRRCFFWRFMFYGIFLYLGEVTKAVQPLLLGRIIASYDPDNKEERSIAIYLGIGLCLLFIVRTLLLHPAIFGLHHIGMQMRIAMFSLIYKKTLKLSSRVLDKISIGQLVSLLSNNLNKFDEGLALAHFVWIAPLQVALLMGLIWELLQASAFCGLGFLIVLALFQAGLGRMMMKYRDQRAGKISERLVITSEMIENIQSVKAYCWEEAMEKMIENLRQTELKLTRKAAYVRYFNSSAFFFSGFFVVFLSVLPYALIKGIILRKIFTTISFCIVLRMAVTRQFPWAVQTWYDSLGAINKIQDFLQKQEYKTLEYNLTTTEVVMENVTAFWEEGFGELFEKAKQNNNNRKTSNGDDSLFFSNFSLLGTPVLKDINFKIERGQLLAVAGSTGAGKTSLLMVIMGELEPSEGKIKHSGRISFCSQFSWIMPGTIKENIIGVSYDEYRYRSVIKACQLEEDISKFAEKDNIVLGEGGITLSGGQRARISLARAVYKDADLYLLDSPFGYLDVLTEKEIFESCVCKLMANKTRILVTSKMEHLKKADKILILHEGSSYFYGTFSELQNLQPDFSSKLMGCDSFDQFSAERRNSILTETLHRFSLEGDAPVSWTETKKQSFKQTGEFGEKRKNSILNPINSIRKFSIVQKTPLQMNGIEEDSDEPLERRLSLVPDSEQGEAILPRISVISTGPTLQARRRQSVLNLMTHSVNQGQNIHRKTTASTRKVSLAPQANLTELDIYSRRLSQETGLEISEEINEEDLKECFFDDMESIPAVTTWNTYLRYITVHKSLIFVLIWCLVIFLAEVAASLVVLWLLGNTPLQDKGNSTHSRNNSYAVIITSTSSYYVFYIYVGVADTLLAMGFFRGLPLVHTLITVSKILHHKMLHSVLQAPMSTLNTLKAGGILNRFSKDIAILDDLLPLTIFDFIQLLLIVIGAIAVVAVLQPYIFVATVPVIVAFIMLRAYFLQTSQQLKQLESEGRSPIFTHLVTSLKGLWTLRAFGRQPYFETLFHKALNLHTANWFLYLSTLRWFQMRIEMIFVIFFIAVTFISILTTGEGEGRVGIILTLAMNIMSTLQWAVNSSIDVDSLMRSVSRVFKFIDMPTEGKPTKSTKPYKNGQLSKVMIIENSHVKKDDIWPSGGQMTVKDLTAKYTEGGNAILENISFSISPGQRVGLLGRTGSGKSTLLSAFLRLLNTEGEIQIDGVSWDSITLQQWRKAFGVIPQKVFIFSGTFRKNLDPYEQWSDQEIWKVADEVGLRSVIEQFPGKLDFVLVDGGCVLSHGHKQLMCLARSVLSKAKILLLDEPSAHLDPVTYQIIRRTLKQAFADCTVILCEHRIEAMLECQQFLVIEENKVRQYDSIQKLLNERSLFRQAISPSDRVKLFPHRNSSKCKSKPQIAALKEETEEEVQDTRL

By EC50 is commonly meant the concentration giving half of the maximal effect. Broadly, the Emax is the size of the effect at its maximum, as opposed to the concentration needed. As to `C#CC[C@H]1C(=O)N(CCC2CCCCC2)CC(=O)N[C@H](Cc2ccccc2)COc2ccc3ccccc3c2C(=O)N[C@H](C(=O)NCCc2ccc3c(c2)OCO3)CC(=O)N1C` [Example 339, (3S,7S,13R)-N-(2-(benzo[d][1,3]dioxol-5-yl)ethyl)-13-benzyl-9-(2-cyclohexylethyl)-6-methyl-1,5,8,11-tetraoxo-7-(prop-2-yn-1-yl)-1,2,3,4,5,6,7,8,9,10,11,12,13,14-tetradecahydronaphtho[1,2-p][1]oxa[4,7,10,14]tetraazacycloheptadecine-3-carboxamide], the EC50 amounted to 195 nM and the Emax came to 237%.
Consider `CN1C(=O)C[C@@H](C(=O)NCCc2ccc3c(c2)OCO3)NC(=O)c2c(ccc3ccccc23)OC[C@@H](Cc2ccccc2)NC(=O)CN(C[C@H]2CCCCO2)C(=O)[C@@H]1CC1CC1` [Example 340, (3S,7S,13R)-N-(2-(benzo[d][1,3]dioxol-5-yl)ethyl)-13-benzyl-7-(cyclopropylmethyl)-6-methyl-1,5,8,11-tetraoxo-9-(((R)-tetrahydro-2H-pyran-2-yl)methyl)-1,2,3,4,5,6,7,8,9,10,11,12,13,14-tetradecahydronaphtho[1,2-p][1]oxa[4,7,10,14]tetraazacycloheptadecine-3-carboxamide], for which the EC50 stood at 278 nM and the Emax turned out to be 139%.
For the compound `CN1C(=O)C[C@@H](C(=O)NCCc2ccc3c(c2)OCO3)NC(=O)c2c(ccc3ccccc23)OC[C@@H](Cc2ccccc2)NC(=O)CN(CCC2CCCCC2)C(=O)[C@@H]1CC1CC1` [Example 341, (3S,7S,13R)-N-(2-(benzo[d][1,3]dioxol-5-yl)ethyl)-13-benzyl-9-(2-cyclohexylethyl)-7-(cyclopropylmethyl)-6-methyl-1,5,8,11-tetraoxo-1,2,3,4,5,6,7,8,9,10,11,12,13,14-tetradecahydronaphtho[1,2-p][1]oxa[4,7,10,14]tetraazacycloheptadecine-3-carboxamide], the EC50 was 144 nM and the Emax turned out to be 237%.
Regarding `COc1cccc(CCNC(=O)[C@@H]2CC(=O)N(C)[C@@H](CC(C)C)C(=O)N3CCCC[C@H]3C(=O)N[C@H](Cc3ccccc3)COc3ccc4ncoc4c3C(=O)N2)c1` [Example 342, (8S,12S,18aS,21R)-21-benzyl-12-isobutyl-N-(3-methoxyphenethyl)-11-methyl-6,10,13,19-tetraoxo-6,7,8,9,10,11,12,13,16,17,18,18a,19,20,21,22-hexadecahydro-15H-oxazolo[4′,5′:5,6]benzo[1,2-p]pyrido[2,1-f][1]oxa[4,7,10,14]tetraazacycloheptadecine-8-carboxamide], the EC50 was determined as 464 nM and the Emax was found to be 128%.
On to `COc1cccc(CCNC(=O)[C@@H]2CC(=O)N(C)[C@@H](CC(C)C)C(=O)N3CCCC[C@@H]3C(=O)N[C@H](Cc3ccccc3)COc3ccc4ncoc4c3C(=O)N2)c1` [Example 343, (8S,12S,18aR,21R)-21-benzyl-12-isobutyl-N-(3-methoxyphenethyl)-11-methyl-6,10,13,19-tetraoxo-6,7,8,9,10,11,12,13,16,17,18,18a,19,20,21,22-hexadecahydro-15H-oxazolo[4′,5′:5,6]benzo[1,2-p]pyrido[2,1-f][1]oxa[4,7,10,14]tetraazacycloheptadecine-8-carboxamide], for which the EC50 was found to be 332 nM and the Emax was determined as 270%.
As for `Cc1cc(CCNC(=O)[C@@H]2CC(=O)N(C)[C@@H](CC(C)C)C(=O)N(CCC3CCCCC3)CC(=O)N[C@H](Cc3ccccc3)COc3cnc4ccccc4c3C(=O)N2)on1` [Example 344, (3S,7S,13R)-13-benzyl-9-(2-cyclohexylethyl)-7-isobutyl-6-methyl-N-(2-(3-methylisoxazol-5-yl)ethyl)-1,5,8,11-tetraoxo-1,2,3,4,5,6,7,8,9,10,11,12,13,14-tetradecahydro-[1]oxa[4,7,10,14]tetraazacycloheptadecino[17,16-c]quinoline-3-carboxamide], the EC50 was determined as 126 nM and the Emax is 284%.
On to `CC(C)C[C@H]1C(=O)N(CCC2CCCCC2)CC(=O)N[C@H](Cc2ccccc2)COc2ccc3c(c2C(=O)N[C@H](C(=O)NCCc2ccc4c(c2)OCO4)CC(=O)N1C)OCO3` [Example 345, (8R,14S,18S)-N-(2-(benzo[d][1,3]dioxol-5-yl)ethyl)-8-benzyl-12-(2-cyclohexylethyl)-14-isobutyl-15-methyl-10,13,16,20-tetraoxo-7,8,9,10,11,12,13,14,15,16,17,18,19,20-tetradecahydro-[1,3]dioxolo[4′,5′:5,6]benzo[1,2-p][1]oxa[4,7,10,14]tetraazacycloheptadecine-18-carboxamide], for which the EC50 worked out at 95 nM and the Emax came to 268%.
In the case of `COc1cccc(CCNC(=O)[C@@H]2CC(=O)N(C)[C@@H](CC(C)C)C(=O)N(CCC3CCCCC3)CC(=O)N[C@H](Cc3ccccc3)COc3ccc4c(c3C(=O)N2)OCO4)c1` [Example 346, (8R,14S,18S)-8-benzyl-12-(2-cyclohexylethyl)-14-isobutyl-N-(3-methoxyphenethyl)-15-methyl-10,13,16,20-tetraoxo-7,8,9,10,11,12,13,14,15,16,17,18,19,20-tetradecahydro-[1,3]dioxolo[4′,5′:5,6]benzo[1,2-p][1]oxa[4,7,10,14]tetraazacycloheptadecine-18-carboxamide], the EC50 amounted to 106 nM and the Emax is 282%.
The like results for `[2H]C([2H])([2H])Oc1cccc(CCNC(=O)[C@@H]2CC(=O)N(C)[C@@H](CC(C)C)C(=O)N(CCC3CCCCC3)CC(=O)N[C@H](Cc3ccccc3)COc3ccc4c(c3C(=O)N2)OCO4)c1` [Example 347, (8R,14S,18S)-8-benzyl-12-(2-cyclohexylethyl)-14-isobutyl-N-(3-(methoxy-d3)phenethyl)-15-methyl-10,13,16,20-tetraoxo-7,8,9,10,11,12,13,14,15,16,17,18,19,20-tetradecahydro-[1,3]dioxolo[4′,5′:5,6]benzo[1,2-p][1]oxa[4,7,10,14]tetraazacycloheptadecine-18-carboxamide] were, in that order, 131 nM and 282%.
As to `COc1cccc(CCNC(=O)[C@@H]2CC(=O)N(C)[C@@H](CC(C)C)C(=O)N3CCN(C4CC4)C[C@@H]3C(=O)N[C@H](Cc3ccccc3)COc3ccc4ncn(C)c4c3C(=O)N2)c1` [Example 348, (8S,12S,18aR,21R)-21-benzyl-17-cyclopropyl-12-isobutyl-N-(3-methoxyphenethyl)-5,11-dimethyl-6,10,13,19-tetraoxo-6,7,8,9,10,11,12,13,16,17,18,18a,19,20,21,22-hexadecahydro-5H,15H-imidazo[4′,5′:5,6]benzo[1,2-p]pyrazino[2,1-f][1]oxa[4,7,10,14]tetraazacycloheptadecine-8-carboxamide], the EC50 was 340 nM and the Emax was 155%.
For `CC(C)C[C@H]1C(=O)N(C)CC(=O)N[C@H](Cc2ccccc2)COc2cnc3c(F)cccc3c2C(=O)N[C@H](C(=O)NCCc2ccc3c(c2)OCO3)CC(=O)N1C` [Example 349, (3S,7S,13R)-N-(2-(benzo[d][1,3]dioxol-5-yl)ethyl)-13-benzyl-18-fluoro-7-isobutyl-6,9-dimethyl-1,5,8,11-tetraoxo-1,2,3,4,5,6,7,8,9,10,11,12,13,14-tetradecahydro-[1]oxa[4,7,10,14]tetraazacycloheptadecino[17,16-c]quinoline-3-carboxamide], the EC50 was determined as 597 nM and the Emax was determined as 258%.
Regarding `COc1cccc(CCNC(=O)[C@@H]2CC(=O)N(C)[C@@H](CC(C)C)C(=O)N(C)CC(=O)N[C@H](Cc3ccccc3)COc3cnc4c(F)cccc4c3C(=O)N2)c1` [Example 350, (3S,7S,13R)-13-benzyl-18-fluoro-7-isobutyl-N-(3-methoxyphenethyl)-6,9-dimethyl-1,5,8,11-tetraoxo-1,2,3,4,5,6,7,8,9,10,11,12,13,14-tetradecahydro-[1]oxa[4,7,10,14]tetraazacycloheptadecino[17,16-c]quinoline-3-carboxamide], the EC50 came out at 546 nM and the Emax turned out to be 299%.
In the case of `COc1cccc(CCNC(=O)[C@@H]2CC(=O)N(C)[C@@H](CC(C)C)C(=O)N3CCCC[C@@H]3C(=O)N[C@H](Cc3ccccc3)COc3ccc4oc(C)nc4c3C(=O)N2)c1` [Example 351, (8S,12S,18aR,21R)-21-benzyl-12-isobutyl-N-(3-methoxyphenethyl)-4,11-dimethyl-6,10,13,19-tetraoxo-6,7,8,9,10,11,12,13,16,17,18,18a,19,20,21,22-hexadecahydro-15H-oxazolo[5′,4′:5,6]benzo[1,2-p]pyrido[2,1-f][1]oxa[4,7,10,14]tetraazacycloheptadecine-8-carboxamide], the EC50 was found to be 756 nM and the Emax is 127%.
For `COc1cccc(CCNC(=O)[C@@H]2CC(=O)N(C)[C@@H](CC(C)C)C(=O)N3CCN(C(C)C)C[C@@H]3C(=O)N[C@H](Cc3ccccc3)COc3ccc4nc(C)oc4c3C(=O)N2)c1` [Example 352, (8S,12S,18aR,21R)-21-benzyl-12-isobutyl-17-isopropyl-N-(3-methoxyphenethyl)-4,11-dimethyl-6,10,13,19-tetraoxo-6,7,8,9,10,11,12,13,16,17,18,18a,19,20,21,22-hexadecahydro-15H-oxazolo[4′,5′:5,6]benzo[1,2-p]pyrazino[2,1-f][1]oxa[4,7,10,14]tetraazacycloheptadecine-8-carboxamide] the same measures were 297 nM and 262%.
The like results for `COc1cccc(CCNC(=O)[C@@H]2CC(=O)N(C)[C@@H](CC(C)C)C(=O)N3CCN(C(C)C)C[C@@H]3C(=O)N[C@H](Cc3ccccc3)COc3ccc4ncn(C)c4c3C(=O)N2)c1` [Example 353, (8S,12S,18aR,21R)-21-benzyl-12-isobutyl-17-isopropyl-N-(3-methoxyphenethyl)-5,11-dimethyl-6,10,13,19-tetraoxo-6,7,8,9,10,11,12,13,16,17,18,18a,19,20,21,22-hexadecahydro-5H,15H-imidazo[4′,5′:5,6]benzo[1,2-p]pyrazino[2,1-f][1]oxa[4,7,10,14]tetraazacycloheptadecine-8-carboxamide] were, in that order, 513 nM and 177%.
